# In ChEMBL document CHEMBL1201862, “PubChem BioAssay data set” (2004):
#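 1) Cells in 96-well plates. 2) Compound, 48 h, 5 concentrations. 3) Linear interpolation between surrounding doses. 4) Unreached endpoint = highest concentration. GI50 = concentration required for 50% inhibition of growth.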 Calls of active or inactive are those of the source. Rule as the data show it: active = GI50 up to about 1.1 µM and inactive = higher.
# Tests used:
# Experiment in all cases: NCI tumour cell line growth inhibition, 48 h
# [1] = test system: ACHN
# [2] = test system: COLO 205
# [3] = test system: EKVX
# [4] = test system: HT-29
# [5] = test system: K562
# [6] = test system: Malme-3M
# [7] = test system: NCI-H23
# [8] = test system: SF-268
# [9] = test system: SK-MEL-2
# [10] = test system: SN12C
# [11] = test system: SNB-19
# [12] = test system: TK-10
# [13] = test system: UACC-257
# [14] = test system: UACC-62
# [15] = test system: NCI-H460
# [16] = test system: RPMI-8226
# [17] = test system: RXF 393
# [18] = test system: SR
SMILES,GI50 [1],GI50 [2],GI50 [3],GI50 [4],GI50 [5],GI50 [6],GI50 [7],GI50 [8],GI50 [9],GI50 [10],GI50 [11],GI50 [12],GI50 [13],GI50 [14],GI50 [15],GI50 [16],GI50 [17],GI50 [18]
NNC(=O)N/N=C1/C(=O)N(c2ccc(Cl)c(Cl)c2)C(=O)C(=O)C1c1nc2ccccc2o1 (centres undefined),> 100 µM (inactive),> 100 µM (inactive),45.3 µM (inactive),> 100 µM (inactive),> 100 µM (inactive),> 100 µM (inactive),> 100 µM (inactive),> 100 µM (inactive),> 100 µM (inactive),> 100 µM (inactive),29.5 µM (inactive),> 100 µM (inactive),> 100 µM (inactive),67.1 µM (inactive),,,,
Cc1oc2c(C)c3oc(=O)cc(C)c3cc2c1CN1C(=O)C2OCCOCCOCCOCCOCCO[C@H]2C1=O (some centres undefined),> 100 µM (inactive),> 100 µM (inactive),> 100 µM (inactive),> 100 µM (inactive),> 100 µM (inactive),> 100 µM (inactive),> 100 µM (inactive),> 100 µM (inactive),,> 100 µM (inactive),> 100 µM (inactive),> 100 µM (inactive),> 100 µM (inactive),> 100 µM (inactive),> 100 µM (inactive),> 100 µM (inactive),> 100 µM (inactive),> 100 µM (inactive)
NC(=S)N/N=C(\CC1OC(=O)c2ccccc21)c1ccc(Cl)cc1 (centres undefined),56.1 µM (inactive),38.6 µM (inactive),,27.2 µM (inactive),84.1 µM (inactive),30.6 µM (inactive),25.2 µM (inactive),36.8 µM (inactive),,35.2 µM (inactive),42.7 µM (inactive),76.9 µM (inactive),46.7 µM (inactive),19.6 µM (inactive),34.3 µM (inactive),75.3 µM (inactive),25.1 µM (inactive),60.7 µM (inactive)
O=S(=O)(c1ccccc1)c1nccs1,> 100 µM (inactive),> 100 µM (inactive),> 100 µM (inactive),> 100 µM (inactive),> 100 µM (inactive),,> 100 µM (inactive),> 100 µM (inactive),> 100 µM (inactive),> 100 µM (inactive),> 100 µM (inactive),> 100 µM (inactive),> 100 µM (inactive),> 100 µM (inactive),> 100 µM (inactive),> 100 µM (inactive),,> 100 µM (inactive)
C=C(C)C(=O)OC1C/C(CO)=C\C(O)C/C(C)=C/C2OC(=O)C(=C)C21 (centres undefined),21.3 µM (inactive),17.1 µM (inactive),25.2 µM (inactive),17.6 µM (inactive),18 µM (inactive),20.6 µM (inactive),> 10 µM (inactive),22.2 µM (inactive),17 µM (inactive),20 µM (inactive),> 100 µM (inactive),21.1 µM (inactive),,19.9 µM (inactive),17.7 µM (inactive),17.3 µM (inactive),,19.9 µM (inactive)
CNS(=O)(=O)NNS(=O)(=O)c1ccc(C)cc1,> 100 µM (inactive),> 100 µM (inactive),> 100 µM (inactive),> 100 µM (inactive),> 100 µM (inactive),> 100 µM (inactive),> 100 µM (inactive),> 100 µM (inactive),> 100 µM (inactive),> 100 µM (inactive),> 100 µM (inactive),> 100 µM (inactive),> 100 µM (inactive),> 100 µM (inactive),> 100 µM (inactive),> 100 µM (inactive),> 100 µM (inactive),> 100 µM (inactive)
CC#N.O[C@@H]1CCCC[C@H]1O.O[C@@H]1CCCC[C@H]1O.[TeH2],46.3 µM (inactive),> 100 µM (inactive),,28.2 µM (inactive),25.8 µM (inactive),> 100 µM (inactive),20.8 µM (inactive),> 100 µM (inactive),> 100 µM (inactive),29.1 µM (inactive),39.8 µM (inactive),> 100 µM (inactive),> 100 µM (inactive),82.2 µM (inactive),2.99 µM (inactive),26.7 µM (inactive),> 100 µM (inactive),24.8 µM (inactive)
CCCCCCCC(=O)OC(COC(=O)Cc1ccccc1)COC(=O)C(C)(C)C (centres undefined),> 100 µM (inactive),46.3 µM (inactive),,,52.4 µM (inactive),> 100 µM (inactive),> 100 µM (inactive),> 100 µM (inactive),,> 100 µM (inactive),> 100 µM (inactive),> 100 µM (inactive),,> 100 µM (inactive),> 100 µM (inactive),> 100 µM (inactive),,64 µM (inactive)
Cc1cccc(C)c1NC(=O)CCCC(=O)CC(=O)/C=C/c1ccccc1,> 100 µM (inactive),> 100 µM (inactive),,> 100 µM (inactive),> 100 µM (inactive),> 100 µM (inactive),> 100 µM (inactive),> 100 µM (inactive),> 100 µM (inactive),> 100 µM (inactive),> 100 µM (inactive),> 100 µM (inactive),> 100 µM (inactive),> 100 µM (inactive),> 100 µM (inactive),> 100 µM (inactive),> 100 µM (inactive),
CN(C)CCC1(C2=CCCC2)CC/C(=C\c2ccc3c(c2)OCO3)C1=O (centres undefined),16.1 µM (inactive),18.7 µM (inactive),15.8 µM (inactive),12.2 µM (inactive),11.5 µM (inactive),15.6 µM (inactive),18.4 µM (inactive),14.4 µM (inactive),16.9 µM (inactive),14.5 µM (inactive),18.2 µM (inactive),15.8 µM (inactive),15.5 µM (inactive),21.5 µM (inactive),18.4 µM (inactive),23.7 µM (inactive),9.14 µM (inactive),
COc1ccccc1NC(=O)CSC(N)=O,42.3 µM (inactive),> 100 µM (inactive),60.1 µM (inactive),47.2 µM (inactive),46 µM (inactive),43 µM (inactive),69.3 µM (inactive),53.8 µM (inactive),22.9 µM (inactive),62.2 µM (inactive),> 100 µM (inactive),> 100 µM (inactive),62.2 µM (inactive),25.8 µM (inactive),32.7 µM (inactive),39.4 µM (inactive),,25.8 µM (inactive)
Cc1ccc2nc(/C(=C/c3ccc(/C=C(\NC(=O)c4ccccc4)c4nc5ccc(C)cc5[nH]4)c(C)c3)NC(=O)c3ccccc3)[nH]c2c1,8.45 µM (inactive),25.1 µM (inactive),12.5 µM (inactive),28.1 µM (inactive),0.785 µM (active),7.29 µM (inactive),19.7 µM (inactive),3.45 µM (inactive),5.13 µM (inactive),5.5 µM (inactive),31.2 µM (inactive),47.1 µM (inactive),,1.14 µM (inactive),13.2 µM (inactive),16.6 µM (inactive),,27.2 µM (inactive)
COC(=O)c1sc(C(=O)OC)c2c1C[S+]([O-])C2,,> 100 µM (inactive),> 100 µM (inactive),> 100 µM (inactive),> 100 µM (inactive),> 100 µM (inactive),> 100 µM (inactive),> 100 µM (inactive),> 100 µM (inactive),,> 100 µM (inactive),> 100 µM (inactive),> 100 µM (inactive),> 100 µM (inactive),,> 100 µM (inactive),> 100 µM (inactive),
O=C1N[C@@H]2CCCC[C@@H]2C12CCCCC2,> 100 µM (inactive),,> 100 µM (inactive),> 100 µM (inactive),> 100 µM (inactive),> 100 µM (inactive),> 100 µM (inactive),> 100 µM (inactive),,> 100 µM (inactive),> 100 µM (inactive),> 100 µM (inactive),> 100 µM (inactive),> 100 µM (inactive),> 100 µM (inactive),> 100 µM (inactive),> 100 µM (inactive),> 100 µM (inactive)
C#CCC[C@@H]1O[C@@]1(C)CC/C=C(\C)CC/C=C/C=O,50.1 µM (inactive),26.7 µM (inactive),58.3 µM (inactive),37.2 µM (inactive),22.6 µM (inactive),20 µM (inactive),29 µM (inactive),22.2 µM (inactive),55.7 µM (inactive),30.3 µM (inactive),45.1 µM (inactive),,23.6 µM (inactive),17.9 µM (inactive),41.1 µM (inactive),19.3 µM (inactive),40.6 µM (inactive),26.4 µM (inactive)
CCN(CC)c1ccc(/N=N\c2ccc(-c3nc4ccc[n+](C)c4s3)cc2)cc1,,3.24 µM (inactive),24 µM (inactive),5.25 µM (inactive),2.4 µM (inactive),6.11 µM (inactive),5.5 µM (inactive),6.07 µM (inactive),7.83 µM (inactive),4.29 µM (inactive),5.3 µM (inactive),20 µM (inactive),5.01 µM (inactive),7.59 µM (inactive),4.01 µM (inactive),2.79 µM (inactive),> 10 µM (inactive),4.5 µM (inactive)
Cn1c(=O)c2nc3c4ccccc4c(=O)n(C)c3nc2n(C)c1=O,> 100 µM (inactive),> 100 µM (inactive),> 100 µM (inactive),> 100 µM (inactive),> 100 µM (inactive),> 100 µM (inactive),> 100 µM (inactive),> 100 µM (inactive),> 100 µM (inactive),> 100 µM (inactive),> 100 µM (inactive),> 100 µM (inactive),> 100 µM (inactive),> 100 µM (inactive),,> 100 µM (inactive),> 100 µM (inactive),> 100 µM (inactive)
